For 1 molecule, Kd and IC50 results are on record in article doi:10.1101/2024.05.30.596757v1 (biorxiv, 2024).

The target of assay [1] is 53BP1 TTD (tandem tudor domain) (Homo sapiens, UniProt Q12888). The assay is described as follows: SPR, OneStep gradient injections, kinetic fit with mass transport. In kind it is binding.
The target in the next assay is eGFP-53BP1 (Homo sapiens, UniProt Q12888). The assay is described as follows: eGFP-53BP1 foci count per nucleus by confocal microscopy, DIvA cells. In kind it is cell-based.
Chain of eGFP-53BP1 (Q12888 whole entry): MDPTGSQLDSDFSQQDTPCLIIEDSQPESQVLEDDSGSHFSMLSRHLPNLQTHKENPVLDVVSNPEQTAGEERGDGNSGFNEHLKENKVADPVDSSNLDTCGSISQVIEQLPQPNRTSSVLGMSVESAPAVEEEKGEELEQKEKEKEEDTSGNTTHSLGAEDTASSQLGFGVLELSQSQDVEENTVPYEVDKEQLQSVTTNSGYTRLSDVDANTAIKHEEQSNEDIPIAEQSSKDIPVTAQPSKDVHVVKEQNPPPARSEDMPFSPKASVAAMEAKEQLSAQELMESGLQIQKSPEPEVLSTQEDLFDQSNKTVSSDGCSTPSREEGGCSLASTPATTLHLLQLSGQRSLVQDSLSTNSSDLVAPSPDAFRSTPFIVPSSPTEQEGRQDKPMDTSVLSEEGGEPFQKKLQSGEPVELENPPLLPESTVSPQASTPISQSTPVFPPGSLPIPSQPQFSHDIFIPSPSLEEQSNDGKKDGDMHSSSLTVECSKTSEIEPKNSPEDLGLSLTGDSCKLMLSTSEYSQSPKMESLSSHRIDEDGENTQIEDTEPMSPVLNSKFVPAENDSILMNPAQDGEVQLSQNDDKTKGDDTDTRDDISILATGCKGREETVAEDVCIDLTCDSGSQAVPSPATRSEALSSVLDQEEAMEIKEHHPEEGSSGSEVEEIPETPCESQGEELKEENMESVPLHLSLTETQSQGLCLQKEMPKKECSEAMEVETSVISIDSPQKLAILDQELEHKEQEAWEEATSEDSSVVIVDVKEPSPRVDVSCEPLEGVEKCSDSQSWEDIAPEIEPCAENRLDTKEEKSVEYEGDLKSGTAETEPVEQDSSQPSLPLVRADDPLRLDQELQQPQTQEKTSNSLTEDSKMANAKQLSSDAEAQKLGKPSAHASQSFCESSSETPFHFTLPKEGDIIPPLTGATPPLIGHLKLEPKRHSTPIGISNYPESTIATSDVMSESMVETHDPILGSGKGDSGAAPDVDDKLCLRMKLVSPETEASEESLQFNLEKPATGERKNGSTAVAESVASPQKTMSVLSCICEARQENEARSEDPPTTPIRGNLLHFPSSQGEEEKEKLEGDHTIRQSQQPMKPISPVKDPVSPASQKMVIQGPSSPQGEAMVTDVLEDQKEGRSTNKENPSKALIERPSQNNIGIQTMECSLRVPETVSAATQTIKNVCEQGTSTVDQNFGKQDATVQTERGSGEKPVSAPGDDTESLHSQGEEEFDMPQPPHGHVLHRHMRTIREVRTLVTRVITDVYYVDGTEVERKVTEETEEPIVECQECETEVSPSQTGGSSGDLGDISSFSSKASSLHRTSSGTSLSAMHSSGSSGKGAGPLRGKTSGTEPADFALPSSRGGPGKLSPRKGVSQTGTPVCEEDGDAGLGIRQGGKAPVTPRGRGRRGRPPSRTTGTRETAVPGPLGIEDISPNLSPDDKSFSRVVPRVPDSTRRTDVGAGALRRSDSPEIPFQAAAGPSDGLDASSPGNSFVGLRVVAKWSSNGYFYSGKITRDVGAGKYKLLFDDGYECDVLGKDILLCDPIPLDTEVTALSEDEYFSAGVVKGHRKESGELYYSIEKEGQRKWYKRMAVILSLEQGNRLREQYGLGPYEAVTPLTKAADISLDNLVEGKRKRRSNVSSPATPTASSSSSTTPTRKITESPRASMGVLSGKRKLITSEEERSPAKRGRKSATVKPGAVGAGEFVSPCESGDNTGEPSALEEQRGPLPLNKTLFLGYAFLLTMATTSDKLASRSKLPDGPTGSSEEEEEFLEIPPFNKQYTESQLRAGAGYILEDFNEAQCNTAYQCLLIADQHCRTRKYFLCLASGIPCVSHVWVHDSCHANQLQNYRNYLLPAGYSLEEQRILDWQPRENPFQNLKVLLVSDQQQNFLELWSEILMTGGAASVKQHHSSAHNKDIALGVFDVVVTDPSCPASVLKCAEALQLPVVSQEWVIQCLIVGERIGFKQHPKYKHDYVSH

One may read the Kd as the free concentration of one partner at which half of the binding sites on the other are occupied at equilibrium, for simple one-to-one binding. High values mean a looser complex, low ones a tighter complex. For orientation: IC50 means the midpoint of a concentration-inhibition curve. A low value points to inhibition by little substance.

Chain of 53BP1 TTD (tandem tudor domain) (Q12888 1483-1606): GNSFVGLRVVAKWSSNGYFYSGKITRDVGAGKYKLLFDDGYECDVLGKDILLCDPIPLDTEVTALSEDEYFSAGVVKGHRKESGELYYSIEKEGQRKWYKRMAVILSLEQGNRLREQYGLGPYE

Take `CCN1CCN(C(=O)c2ccc(Cn3nc(C)cc3C)cc2)CC1` [EoHR, (4-((3,5-dimethyl-1H-pyrazol-1-yl)methyl)phenyl)(4-ethylpiperazin-1-yl)methanone]: binding in assay [1] was characterised by a dissociation constant (Kd) of 14 µM. In addition, the IC50 at eGFP-53BP1 was 13 ± 5 µM.
